Experimental data: PubChem BioAssay AID1117319 (Southern Research Institute, 2015)
Results filed as inconclusive are left out.

Target: Virion infectivity factor (Human immunodeficiency virus type 1 group M subtype B (isolate BH10)) + Virion infectivity factor (Human immunodeficiency virus type 1 group M subtype B (isolate BRU/LAI)) + Virion infectivity factor (Human immunodeficiency virus type 1 group M subtype B (isolate PCV12)) + Virion infectivity factor (Human immunodeficiency virus type 1 group M subtype B (isolate HXB2)) + DNA dC->dU-editing enzyme APOBEC-3G (Homo sapiens) (UniProt P69720+P69721+P69722+P69723+Q9HC16)
Experiment: HIV-1 Vif–A3G interaction blockers – biochemical, TR-FRET, GST-Vif 1-94, biotin-A3G peptide, dose response retest, primary screen (AID 1117319);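 further: Vif residues 1-94 fused to GST binding biotinylated APOBEC3G peptide 110-148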
Settings: TR-FRET GST-Vif / biotin-A3G peptide binding

| Structure (SMILES) | IC50 |
| --- | --- |
| Cc1c(NC(=O)c2cc(-c3cccs3)on2)c(=O)n(-c2ccccc2)n1C | 39.9 µM |
| CCN1C(=O)/C(=C\c2ccc([N+](=O)[O-])s2)C(=O)NC1=S | 1.53 µM |
| O=C(Nc1nc(-c2ccco2)c(-c2ccco2)s1)C1CCC1 | 1.93 µM |
| COC(=O)C1=C(C)NC(=O)/C1=C\c1cc(C)n(-c2ccccc2C)c1C | 14.2 µM |
| COc1ccc(NCc2nc3ccccc3n2CCOc2ccccc2)cc1 | 49 µM |
| CN(C)N1C(N)=C(C#N)C(c2cccnc2)C2=C1CCCC2=O (stereo not given) | 11.4 µM |
| COc1cc(/C=C2/C(=O)c3cccc([N+](=O)[O-])c3C2=O)c(Br)cc1O | 32.2 µM |
| O=C1NC(=S)S/C1=C\C=C\c1ccc([N+](=O)[O-])o1 | 1.84 µM |
| COc1ccccc1N1C(=O)NC(=O)/C(=C/c2ccc([N+](=O)[O-])s2)C1=O | 6.9 µM |
| CCOc1ccccc1NC(=O)CCS(=O)(=O)c1ccc(Br)cc1 | 7.52 µM |
| O=c1cc(-c2ccccc2Cl)c2c([nH]1)CCC2 | 4.31 µM |
| CCCCn1c(O)c(C(CC)=NCCN2CCCCC2)c(=O)[nH]c1=O | 4.09 µM |
| CCC1C/C(=C/c2ccco2)C(=O)/C(=C/c2ccco2)C1 (stereo not given) | 2.59 µM |
| CCc1cc(C=NC2CCCCC2)c(O)s1 | 77.7 µM |
| CCN1CCN(c2cc(N3CCN(C(=O)c4ccco4)CC3)c3c4c(onc24)-c2ccccc2C3=O)CC1 | 3.06 µM |
| O=C1CCCC2=C1C(c1ccco1)Nc1ccc3ccccc3c12 (stereo not given) | 4.21 µM |
| CC(=O)OC1COC(n2ccc3ccccc32)C(OC(C)=O)C1OC(C)=O (stereo not given) | 22.6 µM |
| CCOc1cc(N2CCOCC2)c(OCC)cc1NC(C)C(=O)N1CCN(CC)CC1 (stereo not given) | 23.9 µM |
| C=CCN(CC=C)C(=S)NC(=O)c1ccc([N+](=O)[O-])cc1 | 66.8 µM |
| Cc1cc(SCC2=NNC(=O)C2)c(Cl)cc1Cl | 63.2 µM |
| CCC(C)C(NC(=O)[C@@H](NC(=O)c1ccccc1F)C(C)C)C(=O)OC (stereo not given in full) | 5.83 µM |
| CC1=C(C(=O)Nc2ccccc2)C(c2ccc(C)o2)n2c(s/c(=C\c3ccco3)c2=O)=N1 (stereo not given) | 5.34 µM |
| CN(C)[C@@H]1C(=O)C(C(N)=O)=C(O)[C@@]2(O)C(=O)C3=C(O)c4c(O)ccc(Cl)c4[C@@](C)(O)C3C[C@@H]12 (stereo not given in full) | 7.02 µM |
| CC[n+]1c(/C=C2/C=C(C)CC(C)(C)C2)sc2ccc(OC)cc21 | 21.7 µM |
| COc1cccc(CNC(=O)Cn2c(=O)oc3ccccc32)c1OC | 85.7 µM |
| c1cncc(-c2nnc3sc(-c4ccco4)nn23)c1 | 28.3 µM |
| Cc1[nH]c2ccccc2c1C1=CC(=O)C=CC1=O | 4.25 µM |
| Cc1nn(Cc2ccccc2)c(C)c1C(=O)OCC(=O)c1cc(C)n(C2CC2)c1C | 80.5 µM |

| Structure (SMILES) | IC50 |
| --- | --- |
| Nc1ccc(S(=O)(=O)c2cc(O)c3ccccc3c2O)cc1 | 24.8 µM |
| CCOC(=O)C1CCCN(C(=O)c2ccc(CNc3c(N4CCC(C)CC4)c(=O)c3=O)cc2)C1 (stereo not given) | 31.4 µM |
| O=C(/C=C/c1cccs1)N1CCN(c2ccc(O)cc2)CC1 | 20.9 µM |
| NC(=O)c1c(NC(=O)c2ccc(S(=O)(=O)N3CCOCC3)cc2)sc2c1CCCCC2 | 98.3 µM |
| O=C(NCc1ccccc1)c1ccc2nc(-c3ccco3)c(-c3ccco3)nc2c1 | 0.48 µM |
| CCCCNC(=O)c1ccc2nc(-c3ccco3)c(-c3ccco3)nc2c1 | 1.19 µM |
| O=C1CC(c2ccco2)CC(O)=C1C=Nc1cc(Cl)ccc1O (stereo not given) | 4.47 µM |
| CNc1ccc(Br)cc(C(=O)/C=C/c2cc(OC)ccc2OC)c1=O | 3.6 µM |
| O=C(Nc1ccccc1F)c1coc(=O)c(Br)c1 | 7.06 µM |
| O=C1CCC/C1=C/Nc1ccc2c(c1)OCO2 | 2.09 µM |
| Cn1cccc1/C=C1/C(=O)NC(=O)N(Cc2ccc(F)cc2)C1=O | 8.76 µM |
| O=C1/C(=C/c2ccco2)Oc2c1ccc(O)c2CN1CCCCC1 | 1.36 µM |
| CC[n+]1ccc(C)c2cc(P(=O)(c3ccccc3)c3ccccc3)ccc21 | 3.93 µM |
| CN1CCC(N(C)C(=O)COc2ccccc2-c2ccccc2)CC1 | 10.8 µM |
| CCC(=Nc1ccc(N)cc1)C1=C(O)C(C(=O)OC)C(C)(C)CC1=O (stereo not given) | 2.01 µM |
| COc1ccc(O)c(C(=O)C2c3ccccc3C(=O)N2c2ccc(C)cc2)c1 (stereo not given) | 20.4 µM |
| Cc1ccsc1C=Nc1ccc(O)cc1 | 17.1 µM |
| CCOC(=O)C(=O)Cc1cccnn1 | 0.65 µM |
| O=C(CN1C(=O)NC2(CCCCCCC2)C1=O)NCc1cccs1 | 11.1 µM |
| O=C(Nc1cc(Cl)cc(Cl)c1)c1coc(=O)c(Br)c1 | 19.1 µM |
| Nc1ccc2c(O)cc(S(=O)(=O)O)cc2c1 | 9.44 µM |
| O=c1oc2c3c4c(cc2s1)CCCN4CCC3 | 9.54 µM |
| O=C(NC1=CC(=O)c2ccccc2C1=O)c1ccccc1 | 20.7 µM |
| CC1=C(C(=O)Nc2ccccc2F)C(c2ccsc2)C2=C(CC(c3ccccc3)CC2=O)N1 (stereo not given) | 1.02 µM |
| O=C(CN1CCN(S(=O)(=O)c2ccc(Cl)s2)CC1)NCc1ccc(Cl)cc1 | 7.67 µM |
| N#Cc1ccccc1CN1C(=O)S/C(=C/c2cccn2-c2ccc(C(=O)O)cc2)C1=O | 19.8 µM |
| O=C1CC(=O)N(Cc2ccco2)C(=S)N1 | 2.21 µM |
